Results as given in patent publication US20120004244A1, “Bis Aromatic Compounds for Use as LTC4 Synthase Inhibitors” (BIOLIPOX AB, priority 2009, published 2012).

Molecular target: T1, Recombinant human LTC4 synthase (Homo sapiens, UniProt Q16873)
T1 construct: made in house; host or cells: Pichia pastoris ('Piccia pastoralis' [sic])
T1 sequence (Q16873 1-150): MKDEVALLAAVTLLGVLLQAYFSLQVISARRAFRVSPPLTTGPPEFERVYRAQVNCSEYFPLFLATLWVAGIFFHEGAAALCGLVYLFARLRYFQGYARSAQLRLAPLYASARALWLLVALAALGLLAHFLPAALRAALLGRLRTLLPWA
Assay: LTC4 synthase in vitro assay (LTA4 to LTC4, HTRF detection)
Assay type: biochemical
Details: not given
In short: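 Purified recombinant human LTC4 synthase expressed in Pichia (0.5 μg/mL total protein) was preincubated with inhibitor at 10 μM final for 10 min at room temperature in PBS pH 7.4 with 5 mM GSH. LTA4 was then added at 2.5 μM final, and after 5 min at room temperature LTC4 was detected by HTRF.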

Row | Structure (SMILES) | IC50
1 | CN(c1ccc(Cl)cc1)c1ccc(C(=O)c2ccc(OCc3ccccc3)c(C(=O)O)c2)nc1 [12:7, 2-Benzyloxy-5-{5-[(4-chlorophenyl)(methyl)amino]picolinoyl}benzoic acid] | 0.375 µM
2 | CN(c1ccc(Cl)cc1)c1ccc(C(=O)c2ccc(-n3nncc3-c3ccccc3)c(C(=O)O)c2)nc1 [17:1, 5-{5-[(4-Chlorophenyl)(methyl)amino]picolinoyl}-2-(5-phenyl-1,2,3-triazol-1-yl)-benzoic acid] | 0.116 µM
3 | O=C(c1ccc(-n2nncc2-c2ccccc2)c(C(=O)O)c1)c1ccc(N(CC2CC2)c2ccc(Cl)cc2)cn1 [17:3, 5-{5-[(4-Chlorophenyl)(cyclopropylmethyl)amino]picolinoyl}-2-(5-phenyl-1,2,3-triazol-1-yl)benzoic acid] | 0.045 µM
4 | O=C(c1ccc(-n2nncc2-c2cccc(Cl)c2)c(C(=O)O)c1)c1ccc(N(CC2CC2)c2ccc(Cl)cc2)cn1 [17:4, 5-{5-[(4-Chlorophenyl)(cyclopropylmethyl)amino]picolinoyl}-2-(5-(3-chlorophenyl)-1,2,3-triazol-1-yl)benzoic acid] | 0.016 µM
5 | O=C(c1ccc(-n2nncc2-c2ccc(F)cc2)c(C(=O)O)c1)c1ccc(N(CC2CC2)c2ccc(Cl)cc2)cn1 [17:5, 5-{5-[(4-Chlorophenyl)(cyclopropylmethyl)amino]picolinoyl}-2-(5-(4-fluorophenyl)-1,2,3-triazol-1-yl)benzoic acid] | 0.056 µM
6 | O=C(c1ccc(-n2nncc2-c2ccccn2)c(C(=O)O)c1)c1ccc(N(CC2CC2)c2ccc(Cl)cc2)cn1 [17:6, 5-{5-[(4-Chlorophenyl)(cyclopropylmethyl)amino]picolinoyl}-2-(5-(pyridin-2-yl)-1,2,3-triazol-1-yl)benzoic acid] | 0.107 µM
7 | O=C(c1ccc(-n2nc(C(F)(F)F)cc2-c2ccccc2)c(C(=O)O)c1)c1ccc(N(CC2CC2)c2ccc(Cl)cc2)cn1 [18:1, 5-{5-[(4-Chlorophenyl)(cyclopropylmethyl)amino]picolinoyl}-2-(5-phenyl-3-trifluoro-methylpyrazol-1-yl)benzoic acid] | 0.297 µM
8 | CN(c1ccc(Cl)cc1)c1ccc(C(=O)c2ccc(-n3nc(-c4ccccc4)cc3C(F)(F)F)c(C(=O)O)c2)nc1 [18:2, 5-{5-[(4-Chlorophenyl)(methyl)amino]picolinoyl}-2-(3-phenyl-5-trifluoro-methylpyrazol-1-yl)benzoic acid] | 0.104 µM
9 | CN(c1ccc(Cl)cc1)c1ccc(C(=O)c2ccc(-n3nc(C(F)(F)F)cc3-c3ccccc3)c(C(=O)O)c2)nc1 [18:3] | 0.177 µM
10 | O=C(c1ccc(-n2nc(-c3ccccc3)cc2C(F)(F)F)c(C(=O)O)c1)c1ccc(N(CC2CC2)c2ccc(Cl)cc2)cn1 [18:4, 5-{5-[(4-Chlorophenyl)(cyclopropylmethyl)amino]picolinoyl}-2-(3-phenyl-5-trifluoromethylpyrazol-1-yl)benzoic acid] | 0.065 µM
11 | CN(c1ccc(Cl)cc1)c1ccc(C(=O)c2ccc(-n3nc(-c4cccc(Cl)c4)cc3C(F)(F)F)c(C(=O)O)c2)nc1 [18:5, 5-{5-[(4-Chlorophenyl)(methyl)amino]picolinoyl}-2-[3-(3-chlorophenyl)-5-trifluoromethylpyrazol-1-yl]benzoic acid] | 0.116 µM
12 | CN(c1ccc(Cl)cc1)c1ccc(C(=O)c2ccc(-n3nc(-c4ccc(Cl)cc4)cc3C(F)(F)F)c(C(=O)O)c2)nc1 [18:6, 5-{5-[(4-Chlorophenyl)(methyl)amino]picolinoyl}-2-[3-(4-chlorophenyl)-5-trifluoromethylpyrazol-1-yl]benzoic acid] | 0.115 µM
13 | CN(c1ccc(Cl)cc1)c1ccc(C(=O)c2ccc(-n3nc(C(F)(F)F)cc3-c3ccc(Cl)cc3)c(C(=O)O)c2)nc1 [18:7, 5-{5-[(4-Chlorophenyl)(methyl)amino]picolinoyl}-2-[5-(4-chlorophenyl)-3-trifluoromethylpyrazol-1-yl]benzoic acid] | 0.25 µM
14 | Cc1cn(-c2ccc(C(=O)c3ccc(N(C)c4ccc(Cl)cc4)cn3)cc2C(=O)O)c(-c2ccccc2)n1 [19:1, 5-{5-[(4-Chlorophenyl)(methyl)amino]picolinoyl}-2-(4-methyl-2-phenylimidazol-1-yl)benzoic acid] | 0.235 µM
15 | CN(c1ccc(Cl)cc1)c1ccc(C(=O)c2ccc(-n3ccnc3-c3ccccc3)c(C(=O)O)c2)nc1 [19:2, 5-{5-[(4-Chlorophenyl)(methyl)amino]picolinoyl}-2-(2-phenylimidazol-1-yl)benzoic acid] | 0.486 µM
16 | CN(c1ccc(Cl)cc1)c1ccc(C(=O)c2ccc(-n3cccc3-c3cccc(Cl)c3)c(C(=O)O)c2)nc1 [20:1, 5-{5-[(4-Chlorophenyl)(methyl)amino]picolinoyl}-2-{2-(3-chlorophenyl)pyrrol-1-yl}benzoic acid] | 0.163 µM
17 | CN(c1ccc(Cl)cc1)c1ccc(C(=O)c2ccc(-n3cccc3-c3ccccc3)c(C(=O)O)c2)nc1 [20:2, 5-{5-[(4-Chlorophenyl)(methyl)amino]picolinoyl}-2-(2-phenylpyrrol-1-yl)benzoic acid] | 0.064 µM
18 | CN(c1ccc(Cl)cc1)c1ccc(C(=O)c2ccc(-c3ccccc3C(F)(F)F)c(C(=O)O)c2)nc1 [21:1, 4-{5-[(4-Chlorophenyl)methylamino]pyridine-2-carbonyl}-2′-trifluoromethyl-biphenyl-2-carboxylic acid] | 0.138 µM
19 | CN(c1ccc(Cl)cc1)c1ccc(C(=O)c2ccc(-c3ccc(Cl)cc3Cl)c(C(=O)O)c2)nc1 [21:2, 2′,4′-Dichloro-4-{5-[(4-chlorophenyl)(methyl)amino]picolinoyl}biphenyl-2-carboxylic acid] | 0.261 µM
20 | CN(c1ccc(Cl)cc1)c1ccc(C(=O)c2ccc(-c3ccccc3Cl)c(C(=O)O)c2)nc1 [21:3, 2′-Chloro-4-{5-[(4-chlorophenyl)(methyl)amino]picolinoyl}biphenyl-2-carboxylic acid] | 0.349 µM
21 | CN(c1ccc(Cl)cc1)c1ccc(C(=O)c2ccc(-c3cccc(Cl)c3)c(C(=O)O)c2)nc1 [21:4, 3′-Chloro-4-{5-[(4-chlorophenyl)(methyl)amino]picolinoyl}biphenyl-2-carboxylic acid] | 0.704 µM
22 | CN(c1ccc(Cl)cc1)c1ccc(C(=O)c2ccc(-c3ccccc3OCC3CC3)c(C(=O)O)c2)nc1 [21:5, 4-{5-[(4-Chlorophenyl)(methyl)amino]picolinoyl}-2′-(cyclopropylmethoxy)-biphenyl-2-carboxylic acid] | 0.384 µM
23 | CN(c1ccc(Cl)cc1)c1ccc(C(=O)c2ccc(-c3ccccc3OC(F)(F)F)c(C(=O)O)c2)nc1 [21:6, 4-{5-[(4-chlorophenyl)(methyl)amino]picolinoyl}-2′-trifluoromethoxy-biphenyl-2-carboxylic acid] | 0.217 µM
24 | CN(c1ccc(Cl)cc1)c1ccc(C(=O)c2ccc(-c3cc(Cl)ccc3Cl)c(C(=O)O)c2)nc1 [21:7, 2′,5′-Dichloro-4-{5-[(4-chlorophenyl)(methyl)amino]picolinoyl}biphenyl-2-carboxylic acid] | 0.269 µM
25 | CN(c1ccc(Cl)cc1)c1ccc(C(=O)c2ccc(-c3ccccc3-c3ccccc3)c(C(=O)O)c2)nc1 [21:8, 4-{5-[(4-Chlorophenyl)(methyl)amino]picolinoyl}[1,1′;2′,1″]terphenyl-2-carboxylic acid] | 0.244 µM
26 | CN(c1ccc(Cl)cc1)c1ccc(C(=O)c2ccc(-c3cccc(-c4ccccc4)c3)c(C(=O)O)c2)nc1 [21:9, 4-{5-[(4-Chlorophenyl)(methyl)amino]picolinoyl}[1,1′;2′,1″]terphenyl-2-carboxylic acid[1,1′;3′,1″]terphenyl-2-carboxylic acid] | 0.511 µM

Same assay, conditions: 5 min; total concentration of title compound in the assay 10 μM

Row | Structure (SMILES) | inhibition at 10 µM
27 | CN(c1ccc(Cl)cc1)c1ccc(C(=O)c2ccc(-n3nncc3-c3ccccc3)c(C(=O)O)c2)nc1 [17:1, 5-{5-[(4-Chlorophenyl)(methyl)amino]picolinoyl}-2-(5-phenyl-1,2,3-triazol-1-yl)-benzoic acid] | 98%
28 | O=C(c1ccc(-n2nncc2-c2ccccc2)c(C(=O)O)c1)c1ccc(N(CC2CC2)c2ccc(Cl)cc2)cn1 [17:3, 5-{5-[(4-Chlorophenyl)(cyclopropylmethyl)amino]picolinoyl}-2-(5-phenyl-1,2,3-triazol-1-yl)benzoic acid] | 100%
